Measured values as given in patent publication US9656971B2, “COMT inhibitors” (Hoffmann-La Roche Inc., priority 2012, dated 2017).
Counter-ions that a name gives are not always drawn. Like-named read-outs stand apart in the source and are kept apart here.

Molecular target: T1, Rec. human COMT (Homo sapiens, UniProt P21964)
T1 sequence (P21964 1-271): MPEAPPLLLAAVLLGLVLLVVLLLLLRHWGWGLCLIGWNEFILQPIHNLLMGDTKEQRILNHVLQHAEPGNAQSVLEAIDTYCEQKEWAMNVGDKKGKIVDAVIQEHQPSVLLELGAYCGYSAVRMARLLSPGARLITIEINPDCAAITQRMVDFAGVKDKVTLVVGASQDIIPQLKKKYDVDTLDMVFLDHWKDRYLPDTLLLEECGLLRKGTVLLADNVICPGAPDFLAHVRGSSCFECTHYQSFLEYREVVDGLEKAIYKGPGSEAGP
Assay: COMT-Fluorescence Assay
Assay type: biochemical
Settings: rec. human COMT 25 nM, 4-Nitrocatechol-Alexa488 200 nM, SAM 500 nM
Experimental: This intramolecular interaction is disturbed if the 4-Nitrocatechol is methylated. […] This increase of fluorescence intensity can be followed in a kinetic measurement. The slope in the linear range of the kinetic is calculated. An inhibitor compound decreases the slope.
Signal [rfu/min]=(rfu(end-point)−rfu(startpoint))/incubation_time_#2

[1] = COMT-fluorescence assay, read-out: IC50

Row | SMILES | IC50 (IC50, COMT-fluorescence assay) [nM] | IC50 [1] [nM]
1 | CC(C)Oc1cccc(-c2cc(O)c3nc[nH]c(=O)c3c2)c1 [Example 24, 8-Hydroxy-6-(3-isopropoxyphenyl)quinazolin-4(3H)-one] | 10 | 
2 | Cn1cc(-c2cc(O)c3nc[nH]c(=O)c3c2)cn1 [Example 179, 8-Hydroxy-6-(1-methyl-1H-pyrazol-4-yl)quinazolin-4(3H)-one] |  | 90
3 | COC(=O)c1csc(-c2cc(O)c3nc[nH]c(=O)c3c2)n1 [Example 84, Methyl 2-(8-hydroxy-4-oxo-3,4-dihydroquinazolin-6-yl)thiazole-4-carboxylate] |  | 110
4 | N#Cc1c(-c2ccc(F)cc2)cc(O)c2nc[nH]c(=O)c12 [Example 54, 6-(4-Fluorophenyl)-8-hydroxy-4-oxo-3,4-dihydroquinazoline-5-carbonitrile] |  | 60
5 | O=c1[nH]cnc2c(O)cc(-c3ccccc3Cl)cc12 [Example 132, 6-(2-Chlorophenyl)-8-hydroxyquinazolin-4(3H)-one] | 20 | 
6 | Cc1ccc(-c2c(-c3ccc(F)cc3)cc(O)c3nc[nH]c(=O)c23)cc1 [Example 50, 6-(4-Fluorophenyl)-8-hydroxy-5-p-tolylquinazolin-4(3H)-one] |  | 10
7 | Cc1ccc(-c2cc(O)c3nc[nH]c(=O)c3c2)cc1 [Example 130, 8-Hydroxy-6-p-tolylquinazolin-4(3H)-one] | 30 | 
8 | CS(=O)(=O)c1cccc(-c2cc(O)c3nc[nH]c(=O)c3c2)c1 [Example 157, 8-Hydroxy-6-(3-(methylsulfonyl)phenyl)quinazolin-4(3H)-one] | 20 | 
9 | Cc1cnccc1-c1cc(O)c2nc[nH]c(=O)c2c1 [Example 219, 8-Hydroxy-6-(3-methylpyridin-4-yl)quinazolin-4(3H)-one] |  | 20
10 | O=C(NCCN1CCOCC1)c1ccc(-c2cc(O)c3nc[nH]c(=O)c3c2)cc1 [Example 172, 4-(8-Hydroxy-4-oxo-3,4-dihydroquinazolin-6-yl)-N-(2-morpholinoethyl)benzamide] |  | 20
11 | Cc1ccc(/C=C/c2cc(O)c3nc[nH]c(=O)c3c2)cc1 [Example 21, (E)-8-Hydroxy-6-(4-methylstyryl)quinazolin-4(3H)-one] |  | 100
12 | O=c1[nH]cnc2c(O)cc(-c3ccc(-c4ccccn4)s3)cc12 [Example 89, 8-Hydroxy-6-(5-(pyridin-2-yl)thiophen-2-yl)quinazolin-4(3H)-one] |  | 20
13 | O=c1[nH]cnc2c(O)cc(-c3ccc(F)cc3)c(-c3ccccc3)c12 [Example 49, 6-(4-Fluorophenyl)-8-hydroxy-5-phenylquinazolin-4(3H)-one] |  | 20
14 | O=c1[nH]cnc2c(O)cc(-c3ccc(N4CCOCC4)nc3)cc12 [Example 182, 8-Hydroxy-6-(6-morpholinopyridin-3-yl)quinazolin-4(3H)-one] |  | 30
15 | CNCCc1ccccc1-c1cc(O)c2nc[nH]c(=O)c2c1 [Example 232, 8-Hydroxy-6-(2-(2-(methylamino)ethyl)phenyl)quinazolin-4(3H)-one] | 310 | 
16 | CN1CCC(CCOCc2ccccc2-c2cc(O)c3nc[nH]c(=O)c3c2)CC1 [Example 256, 8-Hydroxy-6-(2-((2-(1-methylpiperidin-4-yl)ethoxy)methyl)phenyl)quinazolin-4(3H)-one] |  | 36
17 | O=c1[nH]cnc2c(O)cc(C3=Cc4ccccc4CC3)cc12 [Example 7, 6-(3,4-Dihydro-naphthalen-2-yl)-8-hydroxy-3H-quinazolin-4-one] |  | 10
18 | Cn1cncc1-c1cc(O)c2nc[nH]c(=O)c2c1 [Example 79, 8-Hydroxy-6-(1-methyl-1H-imidazol-5-yl)quinazolin-4(3H)-one] |  | 150
19 | O=c1[nH]cnc2c(O)cc(Cc3ccccc3)cc12 [Example 9, 6-Benzyl-8-hydroxyquinazolin-4(3H)-one] |  | 1330
20 | Cn1ncc2cc(-c3cc(O)c4nc[nH]c(=O)c4c3)ccc21 [Example 96, 8-Hydroxy-6-(1-methyl-1H-indazol-5-yl)quinazolin-4(3H)-one] |  | 30
21 | CCOc1cc(Cl)ccc1-c1cc(O)c2nc[nH]c(=O)c2c1 [Example 215, 6-(4-Chloro-2-ethoxyphenyl)-8-hydroxyquinazolin-4(3H)-one] | 70 | 
22 | CN(C)CCNC(=O)c1ccc(-c2cc(O)c3nc[nH]c(=O)c3c2)cc1 [Example 173, N-(2-(Dimethylamino)ethyl)-4-(8-hydroxy-4-oxo-3,4-dihydroquinazolin-6-yl)benzamide] |  | 50
23 | O=c1[nH]cnc2c(O)cc(-c3ccccc3COCCC3CCN(CC(F)(F)F)CC3)c(Cl)c12 [Example 120, 5-Chloro-8-hydroxy-6-(2-((2-(1-(2,2,2-trifluoroethyl)piperidin-4-yl)ethoxy)methyl)phenyl)quinazolin-4(3H)-one 2,2,2-trifluoroacetate] |  | 90

Row | SMILES | IC50 (IC50, COMT-fluorescence assay) [nM] | IC50 [1] [nM]
24 | CN(C)c1ccc(-c2cc(O)c3nc[nH]c(=O)c3c2)cn1 [Example 60, 6-(6-(Dimethylamino)pyridin-3-yl)-8-hydroxyquinazolin-4(3H)-one 1:1 salt with trifluoroacetate] |  | 20
25 | O=c1[nH]cnc2c(O)c(Cl)c(Br)cc12 [Example 246, 6-Bromo-7-chloro-8-hydroxyquinazolin-4(3H)-one] |  | 1590
26 | O=c1[nH]cnc2c(O)cc(-c3cccc(N4CCCC4)n3)cc12 [Example 63, 8-Hydroxy-6-(6-(pyrrolidin-1-yl)pyridin-2-yl)quinazolin-4(3H)-one] |  | 40
27 | CC(C)Cc1cc(O)c2nc[nH]c(=O)c2c1 [Example 17, 8-Hydroxy-6-isobutylquinazolin-4(3H)-one] |  | 1100
28 | O=c1[nH]cnc2c(O)cc(-c3ccccc3COCCN3CCN(CC(F)(F)F)CC3)cc12 [Example 121, 8-Hydroxy-6-(2-((2-(4-(2,2,2-trifluoroethyl)piperazin-1-yl)ethoxy)methyl)phenyl)quinazolin-4(3H)-one 2,2,2-trifluoroacetate] |  | 30
29 | O=c1[nH]cnc2c(O)cc(N3CCOCC3)cc12 [Example 187, 8-Hydroxy-6-morpholinoquinazolin-4(3H)-one] |  | 710
30 | O=c1[nH]cnc2c(O)cc(-c3ccc(-n4cccn4)cc3)cc12 [Example 141, 8-Hydroxy-6-(4-pyrazol-1-yl-phenyl)-3H-quinazolin-4-one] | 10 | 
31 | CN(C)c1ccc(-c2cc(O)c3nc[nH]c(=O)c3c2)cc1 [Example 147, 6-(4-Dimethylamino-phenyl)-8-hydroxy-3H-quinazolin-4-one] |  | 20
32 | CCOC(=O)c1[nH]c(-c2cc(O)c3nc[nH]c(=O)c3c2)nc1C [Example 80, Ethyl 2-(8-hydroxy-4-oxo-3,4-dihydroquinazolin-6-yl)-4-methyl-1H-imidazole-5-carboxylate] |  | 90
33 | O=C(c1ccc(-c2cc(O)c3nc[nH]c(=O)c3c2)cc1)N1CCC(F)(F)CC1 [Example 200, 6-[4-(4,4-Difluoro-piperidine-1-carbonyl)-phenyl]-8-hydroxy-3H-quinazolin-4-one] |  | 10
34 | CS(=O)(=O)c1ccccc1-c1cc(O)c2nc[nH]c(=O)c2c1 [Example 212, 8-Hydroxy-6-(2-(methylsulfonyl)phenyl)quinazolin-4(3H)-one] | 870 | 
35 | CC(C)(O)c1ccccc1-c1cc(O)c2nc[nH]c(=O)c2c1 [Example 113, 8-Hydroxy-6-(2-(2-hydroxypropan-2-yl)phenyl)quinazolin-4(3H)-one] |  | 3600
36 | Cc1cc(-c2c(Br)cc(O)c3nc[nH]c(=O)c23)ccn1 [Example 105, 6-Bromo-8-hydroxy-5-(2-methylpyridin-4-yl)quinazolin-4(3H)-one] |  | 70
37 | Cc1ccc(C(=O)c2cc(O)c3nc[nH]c(=O)c3c2)s1 [Example 94, 8-Hydroxy-6-(5-methylthiophene-2-carbonyl)quinazolin-4(3H)-one] |  | 90
38 | COC(=O)c1cc(C)c(-c2cc(O)c3nc[nH]c(=O)c3c2)s1 [Example 81, Methyl 5-(8-hydroxy-4-oxo-3,4-dihydroquinazolin-6-yl)-4-methylthiophene-2-carboxylate] |  | 10
39 | O=c1[nH]cnc2c(O)c(Br)c(-c3ccc(F)cc3)c(Br)c12 [Example 34, 5,7-Dibromo-6-(4-fluorophenyl)-8-hydroxyquinazolin-4(3H)-one] |  | 170
40 | O=c1[nH]cnc2c(O)cc(-c3ccc(F)cc3)cc12 [Example 125, 6-(4-Fluorophenyl)-8-hydroxyquinazolin-4(3H)-one] |  | 20
41 | Cc1ccc(-c2c(-c3ccc(F)cc3)c(Br)c(O)c3nc[nH]c(=O)c23)cc1 [Example 51, 7-bromo-6-(4-fluorophenyl)-8-hydroxy-5-p-tolylquinazolin-4(3H)-one] |  | 260
42 | O=c1[nH]cnc2c(O)cc(-c3cccc(Cl)c3)cc12 [Example 149, 6-(3-Chloro-phenyl)-8-hydroxy-3H-quinazolin-4-one] | 10 | 
43 | O=C(c1ccccc1)c1cc(O)c2nc[nH]c(=O)c2c1 [Example 68, 6-Benzoyl-8-hydroxy-3H-quinazolin-4-one] |  | 60
44 | CSc1ccccc1-c1cc(O)c2nc[nH]c(=O)c2c1 [Example 223, 8-Hydroxy-6-(2-(methylthio)phenyl)quinazolin-4(3H)-one] |  | 20
45 | O=c1[nH]cnc2c(O)ccc(F)c12 [Example 197, 5-Fluoro-8-hydroxyquinazolin-4(3H)-one] |  | 2530
46 | O=C(c1ccncc1)c1cc(O)c2nc[nH]c(=O)c2c1 [Example 93, 8-Hydroxy-6-isonicotinoylquinazolin-4(3H)-one] |  | 160
